Test results from US20260176320A1, “MODULATORS OF G-PROTEIN COUPLED RECEPTORS” (priority 2018, published 2026).
Like-named read-outs stand apart in the source and are kept apart here.

Key:
[1] = test system: mice; experiment: Glucose tolerance test (GTT); assay type: in vivo, mouse; conditions: 24 h GTT, s.c., dose range 2-5 nmol/kg, percent of vehicle
How it was run: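 Compounds diluted in PBS from 1 mM DMSO stocks and given subcutaneously 15 min (5-6 h fast), 4 h (16 h overnight fast), 16 h or 24 h before intraperitoneal glucose (2 g/kg). Tail blood glucose read at 10–120 min post-glucose, at least 6 mice per time-point. Glucose AUC over time determined.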

[2] = target: T1, GIP-R (Homo sapiens, UniProt P48546); experiment: HitHunter cAMP assay (GIP-R); assay type: cell-based; conditions: cAMP; for Emax: read-out: (Emax) GIP-R
T1 sequence (P48546 22-466): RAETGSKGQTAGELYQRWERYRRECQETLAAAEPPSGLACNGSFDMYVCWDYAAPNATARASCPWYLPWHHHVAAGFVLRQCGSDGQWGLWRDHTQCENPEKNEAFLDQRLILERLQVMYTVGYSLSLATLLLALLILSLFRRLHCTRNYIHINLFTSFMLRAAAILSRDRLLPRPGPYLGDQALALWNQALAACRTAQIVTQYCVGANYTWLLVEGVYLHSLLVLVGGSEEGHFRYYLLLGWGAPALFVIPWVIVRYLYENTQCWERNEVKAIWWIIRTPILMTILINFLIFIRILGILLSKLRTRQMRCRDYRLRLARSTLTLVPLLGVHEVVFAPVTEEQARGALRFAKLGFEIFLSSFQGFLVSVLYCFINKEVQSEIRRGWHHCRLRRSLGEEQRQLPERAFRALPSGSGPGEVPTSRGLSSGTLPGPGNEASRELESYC
How it was run: (§1)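 cAMP accumulation read by luminescent HitHunter immunocompetition after 30 min room-temperature agonist stimulation. Agonists tested as 22-point twofold dilutions, in duplicate, on 10,000 cells/well in HBSS containing 625 μM IBMX, 10 mM HEPES and 0.2% BSA.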

[3] = target: T2, GLP-1R (Homo sapiens, UniProt P43220); experiment: HitHunter cAMP assay (GLP-1R); assay type: cell-based; conditions: cAMP; for Emax: read-out: (Emax) GLP-1R
How it was run: as §1

[4] = target: T2, GLP-1R; experiment: PathHunter β-arrestin assay; assay type: cell-based
How it was run: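 β-Arrestin recruitment measured by PathHunter enzyme-fragment luminescence, read after 3 h dark incubation at room temperature with detection solution. Beforehand, agonist in a 22-point 2-fold series was applied in duplicate for 90 min at 37 °C to 5,000 cells/well in BSA-containing (0.2%) medium.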

[5] = Table 3, read-out: EC50 GIP-R/nM
[6] = Table 3A, read-out: EC50 GIP-R/nM
[7] = Table 3, read-out: EC50 GLP-1R/nM
[8] = Table 3A, read-out: EC50 GLP-1R/nM
[9] = PathHunter β-arrestin assay, read-out: β-arrestin activity EC50

T2 sequence (P43220 24-463): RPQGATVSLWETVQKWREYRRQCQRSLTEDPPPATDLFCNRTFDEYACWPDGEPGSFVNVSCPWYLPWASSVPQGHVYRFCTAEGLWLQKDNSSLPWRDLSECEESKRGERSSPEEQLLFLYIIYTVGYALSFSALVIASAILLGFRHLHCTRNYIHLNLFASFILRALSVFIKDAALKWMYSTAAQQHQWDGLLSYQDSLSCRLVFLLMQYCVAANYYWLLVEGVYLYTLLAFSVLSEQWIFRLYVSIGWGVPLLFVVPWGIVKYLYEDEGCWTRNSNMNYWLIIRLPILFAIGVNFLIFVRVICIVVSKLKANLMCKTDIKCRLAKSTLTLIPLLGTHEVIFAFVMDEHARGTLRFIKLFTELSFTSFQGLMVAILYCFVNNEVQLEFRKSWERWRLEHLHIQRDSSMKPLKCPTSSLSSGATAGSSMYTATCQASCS

Compound | AUC score [1] | Emax ([2]; Table 3) [%] | EC50 [2, 5] [nM] | Emax ([2]; Table 3A) [%] | EC50 [2, 6] [nM] | Emax ([3]; Table 3) [%] | EC50 [3, 7] [nM] | Emax ([3]; Table 3A) [%] | EC50 [3, 8] [nM] | EC50 [4, 9] [nM] | EC50 ([2]; EC50 GIP-R/nM, Table 3) [nM] | EC50 ([2]; EC50 GIP-R/nM, Table 3A) [nM] | EC50 ([3]; EC50 GLP-1R/nM, Table 3) [nM] | EC50 ([3]; EC50 GLP-1R/nM, Table 3A) [nM] | EC50 [4] [nM]
CCCCCCCCCCCCCCCC(=O)N[C@@H](CCC(=O)NCCCC[C@H](NC(=O)[C@H](CO)NC(=O)[C@@H]1CCCN1C(=O)[C@@H]1CCCN1C(=O)[C@@H]1CCCN1C(=O)[C@H](C)NC(=O)CNC(=O)[C@H](CO)NC(=O)[C@H](CO)NC(=O)[C@@H]1CCCN1C(=O)CNC(=O)CNC(=O)[C@H](C)NC(=O)[C@H](CC(C)C)NC(=O)[C@H](CC(C)C)NC(=O)[C@H](Cc1c[nH]c2ccccc12)NC(=O)[C@H](CC(N)=O)NC(=O)[C@@H](NC(=O)[C@H](Cc1ccccc1)NC(=O)[C@H](CCC(=O)O)NC(=O)C(C)(C)NC(=O)[C@H](C)NC(=O)[C@H](C)NC(=O)[C@H](CCC(N)=O)NC(=O)[C@H](CCCCN)NC(=O)[C@H](CC(=O)O)NC(=O)[C@H](CC(C)C)NC(=O)[C@H](Cc1ccc(O)cc1)NC(=O)[C@@H](NC(=O)[C@H](CO)NC(=O)[C@H](Cc1ccc(O)cc1)NC(=O)[C@H](CC(=O)O)NC(=O)[C@H](CO)NC(=O)[C@@H](NC(=O)[C@H](Cc1ccccc1)NC(=O)[C@@H](NC(=O)CNC(=O)[C@H](CCC(=O)O)NC(=O)CSCC(=O)NCCN1C(=O)CCC1=O)[C@@H](C)O)[C@@H](C)O)[C@@H](C)CC)C(C)C)C(N)=O)C(=O)O [Compound 114] | 3 (AUC score 3 = 51-75%) | 42 to 63 | 1 to 10 | 42 to 63 | 1 to 10 | 94 to 103 | 0.1 to 10 | 94 to 103 | 0.1 to 10 | > 1000 |  |  |  |  | 
CCCCCCCCCCCCCCCC(=O)N[C@@H](CCC(=O)NCCCC[C@H](NC(=O)[C@H](CO)NC(=O)[C@@H]1CCCN1C(=O)[C@@H]1CCCN1C(=O)[C@@H]1CCCN1C(=O)[C@H](C)NC(=O)CNC(=O)[C@H](CO)NC(=O)[C@H](CO)NC(=O)[C@@H]1CCCN1C(=O)CNC(=O)CNC(=O)[C@H](C)NC(=O)[C@H](CC(C)C)NC(=O)[C@H](CC(C)C)NC(=O)[C@H](Cc1c[nH]c2ccccc12)NC(=O)[C@H](CC(N)=O)NC(=O)[C@@H](NC(=O)[C@H](Cc1ccccc1)NC(=O)[C@H](CCC(=O)O)NC(=O)C(C)(C)NC(=O)[C@H](C)NC(=O)[C@H](C)NC(=O)[C@H](CCC(N)=O)NC(=O)[C@H](CCCCN)NC(=O)[C@H](CC(=O)O)NC(=O)[C@H](CC(C)C)NC(=O)[C@H](Cc1ccc(O)cc1)NC(=O)[C@@H](NC(=O)[C@H](CO)NC(=O)[C@H](Cc1ccc(O)cc1)NC(=O)[C@H](CC(=O)O)NC(=O)[C@H](CO)NC(=O)[C@@H](NC(=O)[C@H](Cc1ccccc1)NC(=O)[C@@H](NC(=O)CNC(=O)[C@H](CCC(=O)O)NC(=O)CNC(=O)CN1CCCCC1=O)[C@@H](C)O)[C@@H](C)O)[C@@H](C)CC)C(C)C)C(N)=O)C(=O)O [Compound 2] | 2 (AUC score 2 = 26-50%) | 46 | 1 to 10 | 46 | 1 to 10 | 99 | < 0.1 | 99 | < 0.1 | > 1000 |  |  |  |  | 
CCCCCCCCCCCCCCCC(=O)N[C@@H](CCC(=O)NCCCC[C@H](NC(=O)[C@H](CO)NC(=O)[C@@H]1CCCN1C(=O)[C@@H]1CCCN1C(=O)[C@@H]1CCCN1C(=O)[C@H](C)NC(=O)CNC(=O)[C@H](CO)NC(=O)[C@H](CO)NC(=O)[C@@H]1CCCN1C(=O)CNC(=O)CNC(=O)[C@H](C)NC(=O)[C@H](CC(C)C)NC(=O)[C@H](CC(C)C)NC(=O)[C@H](Cc1c[nH]c2ccccc12)NC(=O)[C@H](CC(N)=O)NC(=O)[C@@H](NC(=O)[C@H](Cc1ccccc1)NC(=O)[C@H](CCC(=O)O)NC(=O)C(C)(C)NC(=O)[C@H](C)NC(=O)[C@H](C)NC(=O)[C@H](CCC(N)=O)NC(=O)[C@H](CCCCN)NC(=O)[C@H](CC(=O)O)NC(=O)[C@H](CC(C)C)NC(=O)[C@H](Cc1ccc(O)cc1)NC(=O)[C@@H](NC(=O)[C@H](CO)NC(=O)[C@H](Cc1ccc(O)cc1)NC(=O)[C@H](CC(=O)O)NC(=O)[C@H](CO)NC(=O)[C@@H](NC(=O)[C@H](Cc1ccccc1)NC(=O)[C@@H](NC(=O)CNC(=O)[C@H](CCC(=O)O)NC(=O)CSCC(=O)NCCN1CCCC1=O)[C@@H](C)O)[C@@H](C)O)[C@@H](C)CC)C(C)C)C(N)=O)C(=O)O [Compound 83] | 2 (AUC score 2 = 26-50%) | 73 | 1 to 10 | 73 | 1 to 10 | 106 | 0.1 to 1 | 106 | 0.1 to 1 | > 1000 |  |  |  |  | 
CCCCCCCCCCCCCCCC(=O)N[C@@H](CCC(=O)NCCCC[C@H](NC(=O)[C@H](CO)NC(=O)[C@@H]1CCCN1C(=O)[C@@H]1CCCN1C(=O)[C@@H]1CCCN1C(=O)[C@H](C)NC(=O)CNC(=O)[C@H](CO)NC(=O)[C@H](CO)NC(=O)[C@@H]1CCCN1C(=O)CNC(=O)CNC(=O)[C@H](C)NC(=O)[C@H](CC(C)C)NC(=O)[C@H](CC(C)C)NC(=O)[C@H](Cc1c[nH]c2ccccc12)NC(=O)[C@H](CC(N)=O)NC(=O)[C@@H](NC(=O)[C@H](Cc1ccccc1)NC(=O)[C@H](CCC(=O)O)NC(=O)C(C)(C)NC(=O)[C@H](C)NC(=O)[C@H](C)NC(=O)[C@H](CCC(N)=O)NC(=O)[C@H](CCCCN)NC(=O)[C@H](CC(=O)O)NC(=O)[C@H](CC(C)C)NC(=O)[C@H](Cc1ccc(O)cc1)NC(=O)[C@@H](NC(=O)[C@H](CO)NC(=O)[C@H](Cc1ccc(O)cc1)NC(=O)[C@H](CC(=O)O)NC(=O)[C@H](CO)NC(=O)[C@@H](NC(=O)[C@H](Cc1ccccc1)NC(=O)[C@@H](NC(=O)CNC(=O)[C@H](CCC(=O)O)NC(=O)CSCC(=O)NCCN1C(=O)CCC(C)(C)C1=O)[C@@H](C)O)[C@@H](C)O)[C@@H](C)CC)C(C)C)C(N)=O)C(=O)O [Compound 81] | 3 (AUC score 3 = 51-75%) | 89 |  | 89 |  | 96 |  | 96 |  |  | 0.1 to 1 | 0.1 to 1 | 0.1 to 1 | 0.1 to 1 | > 1000
CCCCCCCCCCCCCCCC(=O)N[C@@H](CCC(=O)NCCCC[C@H](NC(=O)[C@H](CO)NC(=O)[C@@H]1CCCN1C(=O)[C@@H]1CCCN1C(=O)[C@@H]1CCCN1C(=O)[C@H](C)NC(=O)CNC(=O)[C@H](CO)NC(=O)[C@H](CO)NC(=O)[C@@H]1CCCN1C(=O)CNC(=O)CNC(=O)[C@H](C)NC(=O)[C@H](CC(C)C)NC(=O)[C@H](CC(C)C)NC(=O)[C@H](Cc1c[nH]c2ccccc12)NC(=O)[C@H](CC(N)=O)NC(=O)[C@@H](NC(=O)[C@H](Cc1ccccc1)NC(=O)[C@H](CCC(=O)O)NC(=O)C(C)(C)NC(=O)[C@H](C)NC(=O)[C@H](C)NC(=O)[C@H](CCC(N)=O)NC(=O)[C@H](CCCCN)NC(=O)[C@H](CC(=O)O)NC(=O)[C@H](CC(C)C)NC(=O)[C@H](Cc1ccc(O)cc1)NC(=O)[C@@H](NC(=O)[C@H](CO)NC(=O)[C@H](Cc1ccc(O)cc1)NC(=O)[C@H](CC(=O)O)NC(=O)[C@H](CO)NC(=O)[C@@H](NC(=O)[C@H](Cc1ccccc1)NC(=O)[C@@H](NC(=O)CNC(=O)[C@H](CCC(=O)O)NC(=O)CSCC(=O)NCCN1C(=O)CSC1=O)[C@@H](C)O)[C@@H](C)O)[C@@H](C)CC)C(C)C)C(N)=O)C(=O)O [Compound 195] | 2 (AUC score 2 = 26-50%) | 46 to 87 | 0.1 to 10 | 46 to 87 | 0.1 to 10 | 93 to 113 |  | 93 to 113 | 0.1 to 10 | > 1000 |  |  |  |  | 
